Results on 1 molecule are retold here after ChEMBL document CHEMBL4699437, “New insights into ethionamide metabolism: influence of oxidized methionine on its degradation path” (RSC Med Chem, 2020).

The nature of the data set: Acid dissociation constant, pKa of the compound.

Structures are written as SMILES.

The molecule `CCc1cc(C(N)=S)ccn1` [ETHIONAMIDE] had a pKa of 11.9.
